Measured values as given in US8329697B2, “Imidizo[1,2-A]pyrazines useful as AHCY hydrolase inhibitors” (Merck Sharp & Dohme Corp., priority 2008, dated 2012).

What was measured:
AHCY enzyme = AHCY enzyme (UniProt P23526); assay: In vitro AHCY activity assay (ThioGlo1 fluorescence); type: biochemical; settings: recombinant expressed human or mouse AHCY enzyme; SAH substrate; ThioGlo1 readout
Method: In vitro AHCY Activity Assay
The AHCY activity of the compounds of the invention can be measured by the following in vitro assay.
The AHCY enzyme assay is based on the principle of fluorescence emission following incubation of a reactive dye with the products of an AHCY catalyzed reaction. The reactive dye (Thioglo1) binds homocysteine through its thiol-containing moiety. The products of the AHCY catalyzed reaction, adenosine and homocysteine, are produced from the hydrolysis of SAH (s-adenosylhomocysteine) through AHCY's hydrolase activity.
The reaction is optimized in 96-, 384-, 1536- and 3456-assay plate formats with recombinant expressed human or mouse AHCY enzyme. When run under initial velocity conditions, the assay is suitable for IC50 and % inhibition calculations.
• 1) ThioGlo1 (catalog 595501, Calbiochem); 100 mM in DMSO • 2) SAH (catalog A-9384, Sigma); 4.69 mM with 0.06 N HCl • 3) Aristeromycin (catalog A-0928, Sigma); 100 mM in DMSO • 4) NAD (catalog 43410, Sigma); 14.5 mM in water • 5) EDTA in 500 mM pH 8 (catalog BP2482-100, Fisher) • 6) DTT stock 200 mM in water • 7) AHCY enzyme (diluted with 100 mM tris pH7.5) Dilutions immediately prior to use: • 1. SAH 750 μM (10×) (dilute with 100 mM Iris pH 7.5) • 2. Aristeromycin (10×) (dilute to 1 mM with 100 mM Tris pH7.5) • 3. ThioGlo1 (10×) (dilute to 100 μM in Tris pH7.5) • 4. […] Read plate (Ex 380 Em 510)

[1] = tested on: AHCY in HEK293 and/or SH-SY5Y cells; assay: Cell-based assay of AHCY inhibition (secreted homocysteine); settings: secreted homocysteine from Hek293 or SH-SY5Y cells, 72 hrs compound treatment
Text: Cell-Based Assay of AHCY Inhibition
The AHCY activity of the compounds of the invention can be measured by the following cell-based assay.
Post treatment collection of the adherent Hek293 and/or SH-SY5Y cells is also made for a viability and proliferation measure. Since the amount of secreted homocysteine is limited by the amount of SAH that is converted to homocysteine in the cells and its subsequent secretion, an EC50 measure and % inhibition relative to DMSO control cells can be made. Since the amount of secreted metabolites such as homocysteine can also be related to the absolute and cellular viability, an MTT (3-(4,5-Dimethylthiazol-2-yl)-2,5-diphenyltetrazolium bromide) measure of proliferation and relative cytotoxicty (as compared to control conditions) may also be made.
• 1. The day before compound treatment, plate 20,000 cells (Hek293 or SH-SY5Y) in 96 well cell culture treated plates in 100 μl of cell culture media (DMEM and 10% fetal bovine serum). • 2. Add fresh media plus compound (and DMSO treated controls) for 72 hrs. • 3. Collect conditioned media for measurement of secreted homocysteine and perform viability/proliferation assay on adherent cells. Measure of Secreted Homocysteine: • 1. […]
a. […] Detection: Fluorescence: Excitation 385 nm, Emission 515 nm • v. […]
b. […] absorbance at 550 nm and 690 nM. • 6. Express readout as 550 nM-690 nM.

IC50 (AHCY enzyme) [nM]	Compound	IC50 [1] [nM]
4	Nc1nccn2c([C@@H]3C=C(CO)[C@@H](O)[C@H]3O)cnc12 [Example 1, (1S,2R,5S)-5-(8-aminoimidazo[1,2-a]pyrazin-3-yl)-3-(hydroxymethyl)cyclopent-3-ene-1,2-diol]	4
692	Nc1nccn2c([C@@H]3CC[C@@H](O)[C@H]3O)cnc12 [Example 2, (1R,2S,3S)-3-(8-aminoimidazo[1,2-a]pyrazin-3-yl)cyclopentane-1,2-diol]	1.4
